Structures can show the parent of a compound that is named as a salt. Where two headings read alike, the source gives them in different places.
What was measured:
[1] = molecular target: lactate dehydrogenase isoenzyme LD-4, HM(3) (Homo sapiens, UniProt P00338+P07195); test: LD isoenzyme inactivation, automated analyzer rate assay (lactate/NAD, 340 nm); assay type: biochemical; settings: R1: guanadine thiocyanate 240 mM, Lithium L-Lactate 90mM, Tris 112.6 mM, pH 9.5; 37 degrees C; read-out: Activity After R1 Treatment (% of Total LDH Reagent)
Experimental: (§1) A. Materials: • 1. Reagent I. contains Lithium L-Lactate (90mM), guanadine thiocyanate (240 mM), Tris buffer (112.6 mM) at pH 9.5. • 2. Reagent II. contains Na(2)SO(4) (40 mM) and NAD (53.76 mM). Reaction mixture is a combination of 2.0 ml of R-1, 0.5 ml of R-2 which has a final reaction pH of 8.9 • 3. LD isoenzymes. Pure LD-1, LD-2, LD-3 and LD-5 individual isoenzymes were obtained from Aalto of Escondido, CA. Patient serum samples were obtained from a local hospital. B. Procedures Using Automated Analyzer Tests were performed on a Boehringer Mannheim/Hitachi 705 analyzer. The analyzer was given the following parameters: Assay Code: Rate - 20-26 (equivalent to 84.62 seconds to 198.70 seconds) Sample Volume: 12 µl R1 Volume: 400 µl R2 Volume: 100 µl Wavelength 1: 376 nm Wavelength 2: 340 nm Temperature: 37 degrees C. Factor: -10470 C. Manual Procedure Instrument: Spectrophotometer Temperature: 37 degrees C. Wavelength: 340 nm 1. Zero spectrophotometer with distilled or deionized water (DI HOH) 2. Pipette the following reagents in a cuvette:
3. Mix and equilibrate sample to 37 degrees C. 4. Pipette and add 0.5 ml of R2 into sample test tube. Mix and measure optical density change at 340 nm for about 6 minutes. Calculate A/min. from 2 to 4 minutes. This is A/min for the sample. 5. Repeat steps 2 to 4 for the blank using 0.060 ml DI HOH as sample. This is A/min. for the blank. 6. […]

[2] = molecular target: lactate dehydrogenase isoenzyme LD-1, H(4) (Homo sapiens, UniProt P07195); test: biochemical; settings: for activity at 240000 µM: R1: guanadine thiocyanate 240 mM, Lithium L-Lactate 90mM, Tris 112.6 mM, pH 9.5, 37 degrees C; for LD-1 ISOENZYME REAGENT (Recovery): Lithium L-Lactate 90 mM, pH 9.6
Experimental: as §1
(§2) 3. Mix and equilibrate sample to 37 degrees C. 4. Pipette and add 0.5 ml of R2 into sample test tube. Mix and measure optical density change at 340 nm for about 6 minutes. Calculate A/min. from 2 to 4 minutes. This is A/min for the sample. 5. Repeat steps 2 to 4 for the blank using 0.060 ml DI HOH as sample. This is A/min. for the blank. 6. Calculate for U/L (U/L = units of LDH activity per liter) U/L = (A/min Sample - A/min blank) x 1000 x 2.56 6.22 x light path x 0.06 [formula] D. Protocol for the Electrophoretic Analysis • 1. About 630 to 1,000 µl of individual LD-1, LD-2, LD-3, LD-4, LD-5 and abnormal patient serum samples were used in the electrophoretic analysis. • 2. 12 µl sample was added to […] R1 and incubated for 4 minutes at 37 degrees C to inhibit LD-2 to LD-5 to achieve an inhibited sample. • 3. Another 12 µl sample was added to 400 ul of Tris buffer (112.6 mM, pH at 8.9-9.0) and incubated for 4 minutes at 37 degrees C to achieve a control sample. • 4. Both the inhibited and control samples were applied to the Beckman Paragon Gel and the electrophoresis was run according to the Beckman procedure specified for the gel using a Beckman Paragon Electrophoresis instrument from Beckman Instrument. E. Method for Comparison Sixty-eight patient samples with LD-1 activity from 30 to 800 U/L were tested to compare the selectivity of R1 with the immunochemical separation method Roche's Isomune LD-1 reagent was employed for the immunochemical separation. F. Experimental Results 1. LD isoenzymes were tested using the Automated Analyzer procedure described above. […] LD-1 isoenzyme was tested at several concentrations. […]
(§3) A. Materials • 1. Reagent I: contains Lithium L-Lactate (90 mM), guanidine HCl (240 mM), sodium thiocyanate (240 mM) Tris buffer (119 mM) and Na(2)Co(3) (12.5 mM) at pH 9.6. • 2. Reagent II: contains Na(2)SO(4) (40 mM) and NAD (53.76 mM). Reaction mixture is a combination of 2.0 ml of R-1, 0.5 ml of R-2 which has final reaction pH at 8.9. • 3. LD isoenzymes: Same as described in Example 1. B. Procedures using Automated Analyzer Same as described in Example 1. C. Manual Procedure Same as described in Example 1. […]
(§4) A. Materials • 1. Reagent I: contains Lithium L-Lactate (90 mM), guanidine-HCL Na(2)Co(3) (12.5mM), Tris buffer (119 mM) at pH 9.6. • 2. Reagent II: contains Na(2)SO(4) (40 mM) and NAD (53.76 Mm). Reaction mixture is a combination of 2.0 ml of R-1, 0.5 ml of R-2 which has final reaction reaction pH at 8.9. • 3. LD isoenzymes: pure LD-1, LD-2, LD-3 and LD-5 individual isoenzymes are obtained from Aalto, Escondido, CA. Patient serum samples are obtained from a local hospital. B. Procedures using Automated Analyzer Same as described in Example 1. C. Manual Procedure Same as described in Example 1. […] Table
(§5) A. Materials • 1. Reagent I: contains Lithium L-Lactate (90 mM), NaSCN (240 mM) Na(2)Co(3) (12.5 mM), Tris buffer (119 mM) at pH 9.6. • 2.

[3] = molecular target: T1, lactate dehydrogenase isoenzyme LD-2, H(3)M (Homo sapiens, UniProt P00338+P07195); test: LD isoenzyme inactivation, automated analyzer rate assay (lactate/NAD, 340 nm); assay type: biochemical; settings: for LD-1 ISOENZYME REAGENT (Recovery): Lithium L-Lactate 90 mM, pH 9.6
T1 construct: purchased Aalto, Escondido, CA
Experimental: as §1, §2, §3, §4, §5

[4] = molecular target: lactate dehydrogenase isoenzyme LD-5, M(4) (Homo sapiens, UniProt P00338); test: as above; assay type: biochemical; settings: for LD-1 ISOENZYME REAGENT (Recovery): Lithium L-Lactate 90 mM, pH 9.6
Experimental: as §1, §2, §3, §4, §5

[5] = molecular target: T2, lactate dehydrogenase isoenzyme LD-3, H(2)M(2) (Homo sapiens, UniProt P00338+P07195); test: as above; assay type: biochemical; settings: Lithium L-Lactate 90 mM, pH 9.6
T2 construct: purchased Aalto, Escondido, CA
Experimental: as §1, §2, §3, §4, §5

[6] = system: LD-2,3,4,5 (sample contains LD(2), LD(3), LD(4), and LD(5) isoenzymes with 43% of LD(4)); test: as above; assay type: biochemical, human; settings: Lithium L-Lactate 90 mM, pH 9.6
Experimental: A. Materials: • 1. […] LD isoenzymes. […] Patient serum samples were obtained from a local hospital. […] Factor: -10470 C. Manual Procedure Instrument: Spectrophotometer Temperature: 37 degrees C. Wavelength: 340 nm 1. […] Pipette the following reagents in a cuvette:
3. Mix and equilibrate sample to 37 degrees C. 4. […] Calculate A/min. from 2 to 4 minutes. This is A/min for the sample. 5. […] This is A/min. for the blank. 6. […] F. Experimental Results 1. […] LD-1 isoenzyme was tested at several concentrations. […]
A. Materials • 1. […] LD isoenzymes: Same as described in Example 1. […] C. Manual Procedure Same as described in Example 1. […]
A. Materials • 1. […] Patient serum samples are obtained from a local hospital. […] C. Manual Procedure Same as described in Example 1. […] Table

[7] = R1: guanadine thiocyanate 240 mM, Lithium L-Lactate 90mM, Tris 112.6 mM, pH 9.5, 37 degrees C, read-out: Activity After R1 Treatment (% of Total LDH Reagent)
[8] = Reagent I: NaSCN 240 mM, no guanidine
[9] = Reagent I: guanidine-HCL (concentration not given), no thiocyanate

## N=C(N)N [guanadine thiocyanate]
[1]
  activity at 240000 µM: 0%
[2]; pH 9.5, read-out: Activity After R1 Treatment (% of Total LDH Reagent), LD-1 sample 1x
  activity at 240000 µM: 98%
[2]; pH 9.5, read-out: Activity After R1 Treatment (% of Total LDH Reagent), LD-1 sample 2x
  activity at 240000 µM: 100%
[2]; pH 9.5, read-out: Activity After R1 Treatment (% of Total LDH Reagent), LD-1 sample 4x
  activity at 240000 µM: 100%
[2]; pH 9.5, read-out: Activity After R1 Treatment (% of Total LDH Reagent), LD-1 sample 6x
  activity at 240000 µM: 102%
[3]; [7]
  activity at 240000 µM: 1.1%
[4]; [7]
  activity at 240000 µM: 0%

## sodium thiocyanate [NaSCN]
[2]; LD-1 sample 1X, Reagent I: NaSCN 240 mM, no guanidine
  LD-1 ISOENZYME REAGENT (Recovery): 252 (138 %)
[2]; LD-1 sample 2X, Reagent I: NaSCN 240 mM, no guanidine
  LD-1 ISOENZYME REAGENT (Recovery): 499 (136 %)
[2]; LD-1 sample 4X, Reagent I: NaSCN 240 mM, no guanidine
  LD-1 ISOENZYME REAGENT (Recovery): 964 (134 %)
[2]; LD-1 sample 6X, Reagent I: NaSCN 240 mM, no guanidine
  LD-1 ISOENZYME REAGENT (Recovery): 1421 (134 %)
[3]; [8]
  LD-1 ISOENZYME REAGENT (Recovery): 905 (116 %)
[4]; [8]
  LD-1 ISOENZYME REAGENT (Recovery): 44 ( 2.6%)
[5]; [8]
  LD-1 ISOENZYME REAGENT (Recovery): 1093 ( 85 %)
[6]; [8]
  LD-1 ISOENZYME REAGENT (Recovery): 725 ( 53 %)

## N=C(N)N [GUANIDINE HCL, guanidine HCl]
[2]; LD-1 sample 1X, Reagent I: guanidine-HCL (concentration not given), no thiocyanate
  LD-1 ISOENZYME REAGENT (Recovery): 202 (110 %)
[2]; LD-1 sample 2X, Reagent I: guanidine-HCL (concentration not given), no thiocyanate
  LD-1 ISOENZYME REAGENT (Recovery): 394 (107 %)
[2]; LD-1 sample 4X, Reagent I: guanidine-HCL (concentration not given), no thiocyanate
  LD-1 ISOENZYME REAGENT (Recovery): 759 (107 %)
[2]; LD-1 sample 6X, Reagent I: guanidine-HCL (concentration not given), no thiocyanate
  LD-1 ISOENZYME REAGENT (Recovery): 1123 (106 %)
[3]; [9]
  LD-1 ISOENZYME REAGENT (Recovery): 826 (106 %)
[4]; [9]
  LD-1 ISOENZYME REAGENT (Recovery): 159 ( 9.50%)
[5]; [9]
  LD-1 ISOENZYME REAGENT (Recovery): 1323 (102 %)
[6]; [9]
  LD-1 ISOENZYME REAGENT (Recovery): 1102 ( 81.2 %)

Reference: patent publication EP0430991B1, “REAGENT FOR USE IN LD-1 ASSAY” (BOEHRINGER MANNHEIM CORPORATION, priority 1988, dated 1990)
